Data from paper PMC3471066, “The Inhibitory Effect of Prunella vulgaris L. on Aldose Reductase and Protein Glycation” (Journal of Biomedicine and Biotechnology, 2012).
Like-named read-outs stand apart in the source and are kept apart here.

Legend:
[1] = Effects on AGEs formation (BSA-methylglyoxal, fluorescence); type: biochemical
Protocol: The modified procedure of Lee et al. was followed. Bovine serum albumin (10 mg/mL) was incubated with 5 mM methylglyoxal in sodium phosphate buffer (100 mM; pH 7.4). […] All of the reagent and samples were sterilized by filtration through 0.2 μM membrane filters, and the mixture was incubated at 37°C for 7 days. The fluorescence intensity was measured at an excitation wavelength of 330 nm and an emission wavelength of 410 nm with a LS50B fluorescence spectrometer (Perkin-Elmer Ltd., USA). Aminoguanidine was also tested as a known inhibitor.

ABTS•+ assay = test: ABTS•+ assay
Protocol: The method of Re et al. was used with slight modification. The ABTS diammonium salt (2 mM) and potassium persulfate (3.5 mM) were mixed and diluted in distilled water kept in the dark at room temperature for 24 h before use. After addition of ABTS^•+ solution to 10 μL of antioxidant compounds were recorded at after 10 min reaction. The percentage inhibition of absorbance at 750 nm is calculated and potted as a function of concentration of antioxidants. Trolox was used as positive control.

[2] = molecular target: T1, rat lens aldose reductase (rAR) (Rattus norvegicus, UniProt P07943); test: Rat lens aldose reductase (rAR) inhibition, NADPH decrease at 340 nm; type: biochemical
T1 construct: from tissue; host or cells: lens of Sprague-Dawley rats (homogenate supernatant)

[3] = molecular target: T2, human recombinant aldose reductase (rhAR) (Homo sapiens, UniProt P15121); test: Kinetics of rhAR inhibition, Lineweaver-Burk plots; type: biochemical; conditions: DL-glyceraldehyde 0.1-1 mM
T2 construct: purchased Wako Pure Chemical Industries (Osaka, Japan)
Protocol: Reaction mixtures consisted of 0.1 M potassium phosphate, 0.16 mM NADPH, 2 mM of recombinant human aldose reductase (rhAR) with varied concentrations of substrate DL-glyceraldehyde and AR inhibitor in a total volume of 200 μL. Concentrations were ranged from 0.1 to 1 mM for DL-glyceraldehyde, and from 0.1 to 1 mM for active compound. Recombinant human aldose reductase activity was assayed spectrophotometrically by measuring the decrease in absorption of NADPH at 340 nm after substrate addition using Bio Tek Power Wave XS spectrophotometer (Bio Tek Instruments, VT, USA).

[4] = molecular target: T2, human recombinant aldose reductase (rhAR); test: Human recombinant aldose reductase (rhAR) inhibition; type: biochemical
rat erythrocyte = test: Blood culture (erythrocyte) and intracellular galactitol measurement; type: cell-based; conditions: for Rat erythrocyte galactitol content: 30 mM galactose, 5 μg/mL compound, 3 h; for inhibition at 5 µg/mL: Rattus norvegicus, Erythrocyte, 5 μg/mL, read-out: inhibition of galactitol accumulation in rat erythrocyte
Protocol: Blood sample was collected in heparin-containing polypropylene tube from 10-week-old male rats. For sugar and sugar alcohol analysis, erythrocytes from heparinized blood were separated from the plasma and buffy coat by centrifuging at 2000×g for 10 min. The cells were washed thrice with normal saline (0.9% NaCl) at 4°C. In the final washing, the cells were centrifuged at 2000 ×g for 10 min to obtain a consistently packed cell preparation. The packed cells (1 mL) were then incubated in a Krebs-Ringer bicarbonate buffer (pH 7.4) containing 30 mM galactose in the presence or absence of samples at 37°C in 5% CO2 for 3 h. The erythrocytes were washed with cold saline by centrifuging at 2000 ×g for 10 min, precipitated by adding 6% of cold perchloric acid (3 mL), and centrifuged again at 2000 ×g for 10 min. The supernatant was neutralized with 2.5 M K2CO3 at 4°C and used for galactitol determination. HPLC analysis for sugar and sugar alcohol in blood was performed with this supernatant of red blood cell homogenate after being benzoylated.

rat lenses = test: Lens culture and intracellular galactitol measurement; type: cell-based; conditions: for Galactitol content in rat lens: 30 mM galactose, 5 μg/mL compound, 6 d; for inhibition at 5 µg/mL: Rattus norvegicus, 5 μg/mL, read-out: inhibition of galactitol accumulation in rat lenses
Protocol: Lenses isolated from 10-week-old male rats were cultured for 6 d in TC-199 medium that contained 15% fetal bovine serum 100 units/mL penicillin and 0.1 mg/mL streptomycin under sterile conditions in an atmosphere of 5% CO2 and 95% air at 37°C. Samples were dissolved in dimethyl sulfoxide. The lenses were divided into 5 groups and cultured in medium containing 5 mM glucose, 30 mM galactose, and rosmarinic acid or caffeic acid ethylene ester. Each lens was placed in well containing 1.0 mL of medium. Galactitol was determined by HPLC after its derivatization by reaction with benzoic acid to a fluorescent compound [20].

Structure (SMILES) | IC50 [1] | Inhibition (%) of AGEs ([1]; 19.61 μg/mL) | IC50 (ABTS•+ assay) | Inhibition (%) of ABTS•+ (ABTS•+ assay; 0.33 μg/mL) | Inhibition (%) of ABTS•+ (ABTS•+ assay; 1.67 μg/mL) | Inhibition (%) of ABTS•+ (ABTS•+ assay; 3.33 μg/mL) | Rat erythrocyte galactitol content (rat erythrocyte) | inhibition at 5 µg/mL (rat erythrocyte) | Galactitol content in rat lens (rat lenses) | inhibition at 5 µg/mL (rat lenses) | also measured
N=C(N)NN [Aminoguanidine, reference compound] | 1945 ± 8.39 µM | 3.96 ± 0.06% | – | – | – | – | – | – | – | – | AGEs IC50 [1]: 143.92 ± 0.62 µg/mL; Inhibition (%) of AGEs ([1]; 98.04 μg/mL): 37.39 ± 0.52%; Inhibition (%) of AGEs ([1]; 196.08 μg/mL): 66.85 ± 0.13%
O=C(O)/C=C/c1ccc(O)c(O)c1 [Compound 1, caffeic acid] | – | 9.33 ± 0.27% | 12 ± 0.24 µM | 11.33 ± 0.31% | 34.65 ± 1.03% | 75.14 ± 1.08% | – | – | – | – | –
O=C(O)c1ccc(O)c(O)c1 [Compound 2, protocatechuic acid] | – | – | 11.6 ± 0.22 µM | 14.90 ± 0.34% | 53.79 ± 0.92% | 93.42 ± 0.58% | – | – | – | – | –
O=C(O)C=Cc1ccc(O)cc1 [Compound 3, p-hydroxycinnamic acid] | – | – | 5.94 ± 1.01 µM | – | 47.60 ± 1.35% | 59.65 ± 1.39% | – | – | – | – | Inhibition (%) of ABTS•+ (ABTS•+ assay; 8.33 μg/mL): 74.05 ± 0.69%; IC50 ([2]; read-out: rAR IC50): 8.35 ± 0.51 µM
O=C(/C=C/c1ccc(O)c(O)c1)O[C@H](Cc1ccc(O)c(O)c1)C(=O)O [Compound 4, rosmarinic acid] | – | 20.67 ± 0.37% | 8.79 ± 0.1 µM | 9.93 ± 0.27% | 36.50 ± 0.78% | 78.40 ± 1.17% | 15.05 ± 0.30 µM | ~35.5% | 532.38 ± 6.56 μg/lens wet weight (g) | ~36.9% | inhibition type of rhAR [3]: noncompetitive; IC50 [4]: 18.6 ± 0.4 µM; IC50 ([2]; rAR IC50): 2.77 ± 0.48 µM
C=COC(=O)/C=C/c1ccc(O)c(O)c1 [Compound 5, caffeic acid ethylene ester] | 33.2 ± 0.54 µM | – | 10.5 ± 0.28 µM | 13.00 ± 0.13% | 50.17 ± 1.75% | 84.68 ± 1.41% | 15.89 ± 0.41 µM | ~31.7% | 653.76 ± 4.68 μg/lens wet weight (g) | ~22.5% | inhibition type of rhAR [3]: noncompetitive inhibition; inhibition type of rhAR ([3]; listed as caffeic acid ethylene ester (5)): noncompetitive; IC50 [4]: 12.6 ± 0.32 µM; Inhibition (%) of AGEs ([1]; 1.96 μg/mL): 9.00 ± 0.43%; Inhibition (%) of AGEs ([1]; 4.9 μg/mL): 33.94 ± 0.94%; Inhibition (%) of AGEs ([1]; 9.8 μg/mL): 74.81 ± 1.41%; IC50 ([2]; read-out: rAR IC50): 3.2 ± 0.55 µM
O=Cc1ccc(O)c(O)c1 [Compound 6, protocatechualdehyde] | 304 ± 3.41 µM | 9.85 ± 0.16% | 12.4 ± 0.33 µM | 13.73 ± 0.37% | 52.73 ± 0.93% | 92.80 ± 1.50% | – | – | – | – | Inhibition (%) of AGEs ([1]; 49.02 μg/mL): 63.45 ± 1.16%; Inhibition (%) of AGEs ([1]; 98.04 μg/mL): 88.69 ± 0.56%
O=c1c(O)c(-c2ccc(O)c(O)c2)oc2cc(O)cc(O)c12 [Quercetin, quercetin, reference compound] | – | – | – | – | – | – | 16.15 ± 0.39 µM | 30.5% | 448.81 ± 3.38 μg/lens wet weight (g) | 46.8% | inhibition at 1 µg/mL ([2]; 1 μg/mL): 44.7 ± 1.39%; inhibition at 5 µg/mL ([2]; 5 μg/mL): 64.7 ± 1.56%; inhibition at 10 µg/mL ([2]; 10 μg/mL): 75.33 ± 0.55%
Cc1c(C)c2c(c(C)c1O)CCC(C)(C(=O)O)O2 (stereo not shown) [Trolox, reference compound] | – | – | 15.3 ± 0.4 µM | – | 21.76 ± 1.15% | 45.48 ± 1.20% | – | – | – | – | ABTS•+ IC50 (ABTS•+ assay): 3.84 ± 0.10 µg/mL; Inhibition (%) of ABTS•+ (ABTS•+ assay; 16.67 μg/mL): 99.44 ± 0.20%
